Here are results for one molecule from US7396538B2, “Apparatus and method for delivery of mitomycin through an eluting biocompatible implantable medical device” (Endovascular Devices, Inc., priority 2002, dated 2008).

In brackets after ≈: the same amount, converted by molar mass.

The experiment deals with vascular smooth muscle cell. The experiment is described as follows: vascular smooth muscle cell (VSMC) proliferation study at varying concentrations of mitomycin C. Type of experiment: cell-based. The method, then: One example of a study was conducted to investigate the vascular smooth muscle cell proliferation (VSMC) from varying concentrations of the mitomycin C. […] A lower dosage of mitomycin C would still permit the advance of VSMC and contribute to increased restenosis and […]. Depending upon the observed biological effects from potentially cytotoxic local tissue levels, a higher concentration of mitomycin C may also still be sufficient.

Regarding `CO[C@@]12[C@H](COC(N)=O)C3=C(C(=O)C(C)=C(N)C3=O)N1C[C@@H]1N[C@@H]12` [mitomycin C], the IC50 (Rattus norvegicus, extrapolation from a logarithmic curve of VSMC inhibition at various dosages, read-out: concentration at which about 50% VSMC inhibition occurs) is around 0.067 µg/mL (≈ 0.2 µM). The VSMC inhibited entry was “about 66%” (dose of about 0.334 micrograms per milliliter) and “about 98%” (dose of about 25.1 micrograms per milliliter).
